In patent US20100179118A1, “CYCLIC AMINOALKYLCARBOXAMIDE DERIVATIVE” (DAINIPPON SUMITOMO PHARMA CO., LTD., priority 2006, published 2010):

How the values were obtained:
[1] = test system: BN rat DNCB repetitive application dermatitis model; test: Suppressive action on BN rat DNCB repetitive application dermatitis model; type: in vivo; settings: dose 2 mg/kg, oral once a day; AUC of ear thickness increase vs solvent control; male BN rat
Protocol: Suppressive Action on BN Rat DNCB Repetitive Application Dermatitis Model
A 8-week-old male rat was sensitized by applying 30 μL of 1.5 wt % solution of dinitrochlorobenzene (DNCB) dissolved in acetone:olive oil=4:1 solution to the right ear on day 1 and 3 days later. Starting from one week thereafter, the same solution was consecutively applied to the right ear every other day in total of 6 times, whereby chronic dermatitis was induced in which the skin thickness increases with time. As for the level of dermatitis, the thickness was measured with a dial gauge thickness before application of the solution, and expressed by the difference from the measured thickness of the right ear immediately before induction on day 1 of the induction. The drug was suspended in 0.5 wt % tragacanth, and orally administered once a day immediately before induction on day 1 of the induction and after 24 hr value measurement the next day. The changes in the ear tumentia with time were monitored, and the area under the curve in a graph showing the values up to 48 hr after the final induction was calculated, from which the percent suppression relative to the area of the solvent control group was determined. As a comparison control compound, prednisolone, which is a steroid, was used.

[2] = test system: TMA (trimellitic anhydride) repetitive application dermatitis model; test: Suppressive action on TMA (trimellitic anhydride) repetitive application dermatitis model; type: in vivo, mice; settings: for inhibition in vivo at 20 mg/kg: Mus musculus, 8 h, oral twice (30 min before and 4 hr after induction), ear thickness vs solvent control, male BALB/c mice, read-out: right ear suppression (%) at 8 hr after final induction

| SMILES | suppression (%) at 48 hr after final induction [1] [%] | inhibition in vivo at 20 mg/kg [2] [%] | right ear suppression (%) at 8 hr after final induction ([2]; mouse, in vivo, po, 80 mg/kg) [%] |
| --- | --- | --- | --- |
| O=C(c1ccc(Cl)cc1)N1CCC(N(C(=O)CN2CCOCC2)C2CCCCC2)CC1 [Example 65, N-[1-(4-chlorobenzoyl)piperidin-4-yl]-N-cyclohexyl-2-(morpholin-4-yl)acetamide] | 20.5 | 41 | – |
| C[C@]12C=CC(=O)C=C1CC[C@@H]1[C@@H]2[C@@H](O)C[C@@]2(C)[C@H]1CC[C@]2(O)C(=O)CO [prednisolone, reference compound] | 44.0 | 67.8 | – |
| O=C(O)c1cccc(N(C(=O)CN2CCCC2)C2CCN(C(=O)c3ccc(C(F)(F)F)cc3)CC2)c1 [Example 227, N-(3-carboxylphenyl)-2-(pyrrolidin-1-yl)-N-[1-(4-trifluoromethylbenzoyl)piperidin-4-yl]acetamide] | – | – | 57.2 |
